pIC50: −log10 of the molar value.

For orientation: pIC50 means the IC50 on a negative log10 scale, so that one unit is a factor of ten.

The target of the assay is T1, TLR8 (Homo sapiens, UniProt Q9NR97).
T1 sequence (Q9NR97 27-1041): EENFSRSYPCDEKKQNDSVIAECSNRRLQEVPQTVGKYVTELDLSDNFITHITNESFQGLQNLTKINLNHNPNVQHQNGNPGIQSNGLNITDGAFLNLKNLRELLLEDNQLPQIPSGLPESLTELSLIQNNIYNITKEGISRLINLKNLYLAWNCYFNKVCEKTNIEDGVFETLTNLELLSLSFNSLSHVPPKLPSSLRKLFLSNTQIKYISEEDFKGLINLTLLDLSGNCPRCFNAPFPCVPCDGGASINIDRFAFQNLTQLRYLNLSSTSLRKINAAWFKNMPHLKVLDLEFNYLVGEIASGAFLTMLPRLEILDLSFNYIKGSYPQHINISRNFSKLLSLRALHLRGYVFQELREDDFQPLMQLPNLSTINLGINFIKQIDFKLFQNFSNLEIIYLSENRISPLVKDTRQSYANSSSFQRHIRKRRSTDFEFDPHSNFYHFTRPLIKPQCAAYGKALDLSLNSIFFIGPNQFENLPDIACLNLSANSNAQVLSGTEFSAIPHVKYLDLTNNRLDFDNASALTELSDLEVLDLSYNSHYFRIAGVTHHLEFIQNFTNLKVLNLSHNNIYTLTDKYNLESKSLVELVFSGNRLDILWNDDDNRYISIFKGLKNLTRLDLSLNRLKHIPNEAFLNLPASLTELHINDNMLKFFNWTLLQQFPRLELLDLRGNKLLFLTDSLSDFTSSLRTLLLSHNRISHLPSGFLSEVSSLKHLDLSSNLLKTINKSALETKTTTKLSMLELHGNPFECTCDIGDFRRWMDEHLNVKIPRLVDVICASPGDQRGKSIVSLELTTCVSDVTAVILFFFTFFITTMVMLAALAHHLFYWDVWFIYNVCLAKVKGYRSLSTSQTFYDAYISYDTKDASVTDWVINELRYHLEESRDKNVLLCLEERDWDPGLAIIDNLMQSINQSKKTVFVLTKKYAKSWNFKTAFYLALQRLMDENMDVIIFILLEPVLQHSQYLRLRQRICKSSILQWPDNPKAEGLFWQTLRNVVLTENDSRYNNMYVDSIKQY
Briefly: huPBMC TLR8 Antagonist IL-6 TR-FRET Assay. The class given is cell-based. Details: Fresh blood was collected from normal human donors; endogenous in cells; host or cells: human PBMCs from fresh donor blood. To be noted: human PBMCs stimulated with ssRNA40 1 μg/ml (DOTAP), 14-16 hrs; IL-6 TR-FRET read-out. Summed up:
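Human PBMCs from fresh donor blood (150,000 cells/well) stimulated 14–16 h at 37 °C with DOTAP-complexed ssRNA40 (final 1 μg/ml for TLR8, 10 μg/mL for TLR7) or ODN2216 (final 0.3 μM, TLR9), 0.25% DMSO, ten-point 1/3 compound dilutions. Supernatant IL-6 read by HTRF (TLR8); IFNα by IFNα2b AlphaLISA (TLR7/TLR9).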
For the compound `Cc1cc(N2CCc3c(c(C)nn3CC34CCC(N)(CC3)CC4)C2)c2ccncc2n1` [Compound No. 3, 4-((3-methyl-5-(2-methyl-1,7-naphthyridin-4-yl)-4,5,6,7-tetrahydro-1H-pyrazolo[4,3-c]pyridin-1-yl)methyl)bicyclo[2.2.2]octan-1-amine], the pIC50 was 7.26.
The figure for `Cc1cc(N2CCc3c(c(C)nn3CC34CCC(NC5COC5)(CC3)CC4)C2)c2cnn(C)c2n1` [Compound No. 6, N-(4-((5-(1,6-dimethyl-1H-pyrazolo[3,4-b]pyridin-4-yl)-3-methyl-4,5,6,7-tetrahydro-1H-pyrazolo[4,3-c]pyridin-1-yl)methyl)bicyclo[2.2.2]octan-1-yl)oxetan-3-amine] is 6.87; for `Cc1cc(N2CCc3c(c(C)nn3CC34CCC(NC(=O)[C@@H]5COCCN5)(CC3)CC4)C2)c2cnn(C)c2n1` [Compound No. 8, (S)—N-(4-((5-(1,6-dimethyl-1H-pyrazolo[3,4-b]pyridin-4-yl)-3-methyl-4,5,6,7-tetrahydro-1H-pyrazolo[4,3-c]pyridin-1-yl)methyl)bicyclo[2.2.2]octan-1-yl)morpholine-3-carboxamide] it is 6.78.
The figure for `Cc1cc(N2CCc3c(c(C)nn3CC34CCC(NC(=O)[C@H]5COCCN5)(CC3)CC4)C2)c2cnn(C)c2n1` [Compound No. 9, (R)—N-(4-((5-(1,6-dimethyl-1H-pyrazolo[3,4-b]pyridin-4-yl)-3-methyl-4,5,6,7-tetrahydro-1H-pyrazolo[4,3-c]pyridin-1-yl)methyl)bicyclo[2.2.2]octan-1-yl)morpholine-3-carboxamide] is 6.70; for `Cc1nc(N2CCc3c(c(C)nn3CC34CCC(N5CC6(COC6)C5)(CC3)CC4)C2)c2c(n1)c(C)nn2C` [Compound No. 10, 6-(4-((3-methyl-5-(1,3,5-trimethyl-1H-pyrazolo[4,3-d]pyrimidin-7-yl)-4,5,6,7-tetrahydro-1H-pyrazolo[4,3-c]pyridin-1-yl)methyl)bicyclo[2.2.2]octan-1-yl)-2-oxa-6-azaspiro[3.3]heptane] it is 7.32.
Consider `Cc1nc(N2CCc3c(c(C)nn3CC34CCC(N)(CC3)CC4)C2)c2c(n1)c(C)nn2C` [Compound No. 26, 4-((3-methyl-5-(1,3,5-trimethyl-1H-pyrazolo[4,3-d]pyrimidin-7-yl)-4,5,6,7-tetrahydro-1H-pyrazolo[4,3-c]pyridin-1-yl)methyl)bicyclo[2.2.2]octan-1-amine], for which the pIC50 is 6.54.
Consider `Cc1cc(N2CCc3c(c(C)nn3CC34CCC(N(C)C)(CC3)CC4)C2)c2cnn(C)c2n1` [Compound No. 43, 4-((5-(1,6-dimethyl-1H-pyrazolo[3,4-b]pyridin-4-yl)-3-methyl-4,5,6,7-tetrahydro-1H-pyrazolo[4,3-c]pyridin-1-yl)methyl)-N,N-dimethylbicyclo[2.2.2]octan-1-amine], for which the pIC50 is 7.29.
The value for `Cc1cc(N2CCc3c(c(C)nn3CC34CCC(N5CCN(C)C(=O)C5)(CC3)CC4)C2)c2cnn(C)c2n1` [Compound No. 104, 4-(4-((5-(1,6-dimethyl-1H-pyrazolo[3,4-b]pyridin-4-yl)-3-methyl-4,5,6,7-tetrahydro-1H-pyrazolo[4,3-c]pyridin-1-yl)methyl)bicyclo[2.2.2]octan-1-yl)-1-methylpiperazin-2-one] was 6.41; that for `Cc1cc(N2CCc3c(c(C)nn3CC34CCC(N5CCN(C)CC5=O)(CC3)CC4)C2)c2cnn(C)c2n1` [Compound No. 108, 1-(4-((5-(1,6-dimethyl-1H-pyrazolo[3,4-b]pyridin-4-yl)-3-methyl-4,5,6,7-tetrahydro-1H-pyrazolo[4,3-c]pyridin-1-yl)methyl)bicyclo[2.2.2]octan-1-yl)-4-methylpiperazin-2-one] was 7.36; that for `Cc1cc(N2CCc3c(c(C)nn3CC34CCC(n5ccnc5)(CC3)CC4)C2)c2cnn(C)c2n1` [Compound No. 119, 1-((4-(1H-imidazol-1-yl)bicyclo[2.2.2]octan-1-yl)methyl)-5-(1,6-dimethyl-1H-pyrazolo[3,4-b]pyridin-4-yl)-3-methyl-4,5,6,7-tetrahydro-1H-pyrazolo[4,3-c]pyridine] was 5.93.
The value for `Cc1cc(N2CCc3c(c(C)nn3CC34CCC(NC(=O)CN5CC(F)C5)(CC3)CC4)C2)c2cnn(C)c2n1` [Compound No. 133, N-(4-((5-(1,6-dimethyl-1H-pyrazolo[3,4-b]pyridin-4-yl)-3-methyl-4,5,6,7-tetrahydro-1H-pyrazolo[4,3-c]pyridin-1-yl)methyl)bicyclo[2.2.2]octan-1-yl)-2-(3-fluoroazetidin-1-yl)acetamide] was 6.09; that for `Cc1cc(N2CCc3c(c(C)nn3CC34CCC(NC(=O)CO)(CC3)CC4)C2)c2cnn(C)c2n1` [Compound No. 135, N-(4-((5-(1,6-dimethyl-1H-pyrazolo[3,4-b]pyridin-4-yl)-3-methyl-4,5,6,7-tetrahydro-1H-pyrazolo[4,3-c]pyridin-1-yl)methyl)bicyclo[2.2.2]octan-1-yl)-2-hydroxyacetamide] was 5.07; that for `Cc1cc(N2CCc3c(c(C)nn3CC34CCC(NC(=O)CN5CC(O)C5)(CC3)CC4)C2)c2cnn(C)c2n1` [Compound No. 136, N-(4-((5-(1,6-dimethyl-1H-pyrazolo[3,4-b]pyridin-4-yl)-3-methyl-4,5,6,7-tetrahydro-1H-pyrazolo[4,3-c]pyridin-1-yl)methyl)bicyclo[2.2.2]octan-1-yl)-2-(3-hydroxyazetidin-1-yl)acetamide] was 6.75.
The value for `[2H]C([2H])([2H])n1ncc2c(N3CCc4c(c(C)nn4CC45CCC(N)(CC4)CC5)C3)cc(C)nc21` [Compound No. 140, 4-((3-methyl-5-(6-methyl-1-(methyl-d3)-1H-pyrazolo[3,4-b]pyridin-4-yl)-4,5,6,7-tetrahydro-1H-pyrazolo[4,3-c]pyridin-1-yl)methyl)bicyclo[2.2.2]octan-1-amine] was 6.48; that for `Cc1cc(N2CCc3c(c(C)nn3CC34CCC(NC(=O)OC(C)(C)C)(CC3)CC4)C2)c2ccncc2n1` [Compound No. 147, tert-butyl (4-((3-methyl-5-(2-methyl-1,7-naphthyridin-4-yl)-4,5,6,7-tetrahydro-1H-pyrazolo[4,3-c]pyridin-1-yl)methyl)bicyclo[2.2.2]octan-1-yl)carbamate] was less than 5.00; that for `Cc1nn(CC23CCC(N)(CC2)CC3)c2c1CN(c1nc(N)nc3c1cnn3C)CC2` [compound 13, 4-(1-((4-aminobicyclo[2.2.2]octan-1-yl)methyl)-3-methyl-6,7-dihydro-1H-pyrazolo[4,3-c]pyridin-5(4H)-yl)-1-methyl-1H-pyrazolo[3,4-d]pyrimidin-6-amine] was 5.87.
For `Cc1nn(CC23CCC(N)(CC2)CC3)c2c1CN(c1nc(Cl)nc3cnn(C)c13)CC2` [compound 15, 4-((5-(5-chloro-1-methyl-1H-pyrazolo[4,3-d]pyrimidin-7-yl)-3-mehtyl-4,5,6,7-tetrahydro-1H-pyrazolo[4,3-c]pyridin-1-yl)methyl)bicyclo[2.2.2]octan-1-amine], the negative logarithm of the IC50 (pIC50) is 6.69.
The figure for `Cc1nc(N2CCc3c(c(C)nn3CC34CCC(N5CCCC5)(CC3)CC4)C2)c2cnn(C)c2n1` [compound 16, 1,6-dimethyl-4-(3-methyl-1-((4-(pyrrolidin-1-yl)bicyclo[2.2.2]octan-1-yl)methyl)-6,7-dihydro-1H-pyrazolo[4,3-c]pyridin-5(4H)-yl)-1H-pyrazolo[3,4-d]pyrimidine] is 6.35.

(Values after patent US20240376099A1, “COMPOUNDS AND COMPOSITIONS AS INHIBITORS OF ENDOSOMAL TOLL-LIKE RECEPTORS” (Novartis AG, priority 2016, published 2024).)
